Active and inactive are the calls of the source. The calls are words filed in the database; no cut-off is given here.
Key:
[1] = molecular target: T1, Beta-1 adrenergic receptor (Cavia porcellus, UniProt B0FL73); test: In vitro ability to block beta-1 adrenergic receptor in guinea pig right atria.; details: read-out: pA2 (converted)
[2] = molecular target: Beta-1 adrenergic receptor (Cavia porcellus) (UniProt B0FL73); test: In vivo inhibition of Beta-1 adrenergic receptor in guinea pig right atria after 40 min; format: functional, organism-based
Sequence of Beta-1 adrenergic receptor (Cavia porcellus) (B0FL73 1-467): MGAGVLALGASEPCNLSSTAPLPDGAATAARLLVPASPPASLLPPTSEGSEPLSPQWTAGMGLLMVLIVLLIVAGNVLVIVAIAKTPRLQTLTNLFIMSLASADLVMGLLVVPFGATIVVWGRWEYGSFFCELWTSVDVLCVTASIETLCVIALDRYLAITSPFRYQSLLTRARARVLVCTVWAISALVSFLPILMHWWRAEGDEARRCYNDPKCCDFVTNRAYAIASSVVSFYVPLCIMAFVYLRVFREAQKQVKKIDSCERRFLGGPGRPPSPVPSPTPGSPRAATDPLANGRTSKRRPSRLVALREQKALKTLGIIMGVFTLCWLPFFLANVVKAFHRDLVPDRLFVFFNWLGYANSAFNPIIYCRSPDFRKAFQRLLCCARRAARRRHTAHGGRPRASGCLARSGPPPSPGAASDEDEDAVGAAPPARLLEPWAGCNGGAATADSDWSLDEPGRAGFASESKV

[3] = molecular target: Beta-2 adrenergic receptor (Cavia porcellus, UniProt Q8K4Z4); test: In vitro ability to block beta-2 adrenergic receptor in guinea pig trachea.; format: tissue-based; details: read-out: pA2 (converted)
Sequence of Beta-2 adrenergic receptor (Q8K4Z4 whole entry): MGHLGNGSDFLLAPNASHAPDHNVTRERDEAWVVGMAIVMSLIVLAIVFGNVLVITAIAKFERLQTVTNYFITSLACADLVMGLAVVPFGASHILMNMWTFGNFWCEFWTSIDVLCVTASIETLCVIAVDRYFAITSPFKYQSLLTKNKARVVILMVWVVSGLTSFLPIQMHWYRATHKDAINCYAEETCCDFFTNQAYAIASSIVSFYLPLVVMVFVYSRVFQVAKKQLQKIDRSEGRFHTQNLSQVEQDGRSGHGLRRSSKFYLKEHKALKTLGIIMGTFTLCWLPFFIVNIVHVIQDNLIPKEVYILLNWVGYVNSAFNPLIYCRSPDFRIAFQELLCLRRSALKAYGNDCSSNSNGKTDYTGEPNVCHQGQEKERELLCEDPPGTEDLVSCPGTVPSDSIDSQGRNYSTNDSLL

[4] = molecular target: Beta-1 adrenergic receptor (Cavia porcellus) (UniProt B0FL73); test: The compound was tested in vivo for its ability to block Beta-1 adrenergic receptor in guinea pig right atria at a duration of 3h; format: functional, organism-based
[5] = molecular target: Beta-1 adrenergic receptor (Cavia porcellus) (UniProt B0FL73); test: The compound was tested in vitro for its ability to block Beta-1 adrenergic receptor in guinea pig right atria; Inactive at 10E-5 M
[6] = molecular target: Beta-2 adrenergic receptor (Cavia porcellus) (UniProt Q8K4Z4); test: The compound was tested in vitro for its ability to block Beta-2 adrenergic receptor in guinea pig trachea; Inactive at 10E-5 M; format: tissue-based
Sequence of Beta-2 adrenergic receptor (Cavia porcellus) (UniProt Q8K4Z4) (Q8K4Z4 whole entry, looked up): as the sequence (Q8K4Z4 whole entry) above

[7] = molecular target: T1, Beta-1 adrenergic receptor; test: The compound was tested in vitro for its ability to block Beta-1 adrenergic receptor in guinea pig right atria; details: read-out: pA2 (converted)
[8] = molecular target: Beta-1 adrenergic receptor (Cavia porcellus) (UniProt B0FL73); test: The compound was tested in vivo for its ability to block […] adrenergic receptor n guinea pig right atria at a duration of 3h; format: organism-based
[9] = molecular target: T1, Beta-1 adrenergic receptor; test: The compound was tested in vitro for its ability to block Beta-1 adrenergic receptor n guinea pig trachea; format: tissue-based; details: read-out: pA2 (converted)
[10] = Cardioselectivity expressed as antilog of pA2 (atria)-pA2 (trachea).
[11] = molecular target: Beta-1 adrenergic receptor (Cavia porcellus) (UniProt B0FL73)
Description: The compound was tested in vivo for its ability to block Beta-1 adrenergic receptor in guinea pig right atria at a duration of 40 min

[12] = molecular target: Beta-2 adrenergic receptor (Cavia porcellus); test: The compound was tested in vitro for its ability to block beta-2-adrenergic receptor in guinea pig trachea; details: read-out: pA2 (converted)

T1 sequence (B0FL73 whole entry): as the sequence (B0FL73 1-467) above

CCOC(=O)CCCCNCC(O)COc1ccccc1C (stereo not given)
Kb [1]: 15.8 nM | In vivo duration [2]: 20 min

NC(=O)CNCC(O)COc1cccc2ccccc12 (stereo not given)
Kb [1]: 631 nM | Kb [3]: 631 nM

CCOC(=O)CCNCC(O)COc1ccccc1Cl (stereo not given)
In vivo duration [4]: > 60 min

COC(=O)CCNCC(O)COc1ccccc1C (stereo not given)
Kb [1]: 31.6 nM

O=C(O)CNCC(O)COc1ccccc1 (stereo not given)
pA2 [5]: inactive | pA2 [6]: inactive

CCOC(=O)CCNCC(O)COc1cccc(C)c1 (stereo not given)
Kb [1]: 200 nM

O=C(CCNCC(O)COc1ccccc1)Oc1ccccc1 (stereo not given)
Kb [7]: 398 nM | In vivo duration [8]: > 60 min

CCOC(=O)CCNCC(O)COc1ccccc1C (stereo not given)
Kb [1]: 31.6 nM | In vivo duration [2]: 14 min

CCOC(=O)CCNCC(O)COc1c(C)cccc1C (stereo not given)
Kb [7]: 794 nM | Kb [3]: 1000 nM

CCOC(=O)CNCC(O)COc1ccccc1C (stereo not given)
Kb [1]: 1260 nM

O=C1CCC(=O)N1CC(O)COc1ccccc1 (stereo not given)
pA2 [5]: inactive

COC(=O)CCNCC(O)COc1cccc2ccccc12 (stereo not given)
Kb [3]: 100 nM

CCOC(=O)c1ccc(NCC(O)COc2ccccc2C)cc1 (stereo not given)
Kb [1]: 7940 nM

CCOC(=O)c1ccc(CNCC(O)COc2ccccc2C)cc1 (stereo not given)
Kb [1]: 251 nM | Kb [9]: 1260 nM | Cardio selectivity [10]: 5

CC(C)CNCC(O)COc1cccc2ccccc12 (stereo not given)
Kb [1]: 2 nM | Kb [3]: 1.26 nM | In vivo duration [4]: > 60 min | In vivo duration [2]: 46 min

CCOC(=O)CCNCC(O)COc1cccc(Cl)c1 (stereo not given)
In vivo duration [4]: > 60 min

O=C(CCNCC(O)COc1ccccc1)Oc1ccc(F)cc1 (stereo not given)
Kb [7]: 2000 nM

NCC(O)COc1cccc2ccccc12 (stereo not given)
Kb [1]: 316 nM | Kb [3]: 501 nM

CCOC(=O)CCCNCC(O)COc1ccccc1C (stereo not given)
In vivo duration [4]: > 60 min | In vivo duration [2]: 15 min

NCC(O)COc1ccccc1 (stereo not given)
Kb [1]: 126 nM | Kb [3]: 1260 nM | Cardio selectivity [10]: 10

Cc1ccccc1OCC(O)CNCC(C)C (stereo not given)
Kb [1]: 2.51 nM | Kb [3]: 6.31 nM

CC(C)CNCC(O)COc1ccccc1 (stereo not given)
Kb [1]: 10 nM | Kb [3]: 39.8 nM | Cardio selectivity [10]: 5

CCOC(=O)CCNCC(O)COc1cccc2ccccc12 (stereo not given)
Kb [1]: 39.8 nM | Kb [3]: 50.1 nM | In vivo duration [2]: 17 min

CCOC(=O)c1cccc(NCC(O)COc2ccccc2C)c1 (stereo not given)
Kb [1]: 6310 nM

CCOC(=O)CCNCC(O)COc1ccccc1 (stereo not given)
In vivo duration [11]: 29 min

CCOC(=O)CCNCC(O)COc1cccc(OC)c1 (stereo not given)
Kb [1]: 398 nM

COC(=O)CNCC(O)COc1ccccc1C (stereo not given)
Kb [1]: 3160 nM | Kb [3]: 2000 nM

COc1ccc(CCOC(=O)CCNCC(O)COc2ccccc2)cc1OC (stereo not given)
Kb [1]: 100 nM | Kb [12]: 251 nM

CCOC(=O)CCNCC(O)COc1ccc(Cl)cc1 (stereo not given)
pA2 [5]: inactive

O=C1CCCN1CC(O)COc1ccccc1 (stereo not given)
pA2 [5]: inactive | pA2 [6]: inactive

CCOC(=O)CCNCC(O)COc1ccc(OC)cc1 (stereo not given)
Kb [1]: 1580 nM

O=C(CCNCC(O)COc1ccccc1)OCC(F)(F)F (stereo not given)
Kb [1]: 2000 nM

CCOC(=O)C(NCC(O)COc1ccccc1C)C(=O)OCC (stereo not given)
Kb [1]: 1260 nM

CCOC(=O)CC(C)(C)NCC(O)COc1ccccc1C (stereo not given)
Kb [1]: 3.16 nM | Kb [3]: 7.94 nM | In vivo duration [4]: > 60 min

CCOC(=O)CNCC(O)COc1cccc2ccccc12 (stereo not given)
In vivo duration [2]: 53 min

Reference: ChEMBL document CHEMBL1122202, “Ultra-short-acting beta-adrenergic receptor blocking agents. 1. (Aryloxy)propanolamines containing esters in the nitrogen substituent” (J Med Chem, 1982)
